According to paper PMC12476087, “Loading of Dicarboxylatoplatinum(II)‐NHC Complexes in Bacterial Ghosts as an Advanced Development in Cancer Therapy” (Archiv Der Pharmazie, 2025):

Assay: Stability in aqueous solution (RP‐HPLC‐MS)
Assay type: physicochemical
Conditions: 0.5 mM in water, rt; m/z 446.1 (1, 20 h), m/z 602.2 (2)
Method: Samples were analyzed by HPLC‐MS immediately after preparation and at selected time points during 24 h of incubation at rt. […] As stationary phase, a Gemini C18 110 Å; 150 × 4.6 mm; 3.0 µm particles (Phenomenex Ltd.; Aschaffenburg, Germany) column was employed and equipped with a 4 × 3 mm guard column of the identical material. […] The oven temperature was maintained at 30°C and the MS analysis was performed with split flow 1:5 of the eluate in positive ionization mode (capillary voltage 4.5 kV; source temperature 320°C; dry gas 10 L/min; nebulizer gas pressure 30 psi, scan range m/z 50–1500). The injection volume of the sample solution (V sample) was set to 10 µL. Sample degradation was evaluated by integration of the extracted ion chromatograms at the indicated m/z ± 0.5 (based on the monoisotopic peaks).

| Compound | change of HPLC‐MS signal intensity in aqueous solution |
| --- | --- |
| (SP‐4‐2)‐Diacetatobis(1,3‐diethylbenzimidazol‐2‐ylidene)platinum(II) [Compound 2] | progressively decreased over time |
| CCN1[C]([Pt]([O]C(C)=O)([O]C(C)=O)[SH](C)(C)=O)N(CC)c2ccccc21 [Compound 1, (SP‐4‐2)‐Diacetato(1,3‐diethylbenzimidazol‐2‐ylidene)(dimethylsulfoxide)platinum(II)] | No significant decrease in the intensity of this signal |
